Test results from publication PMC7159882, “Polyunsaturated fatty acid analogues differentially affect cardiac NaV, CaV, and KV channels through unique mechanisms” (eLife, 2020).

Assays:
Nav1.5/β1 = molecular target: T1, Nav1.5/β1 (Homo sapiens, UniProt Q14524); experiment: Two-electrode voltage clamp of Nav1.5/β1 expressed in Xenopus oocytes; type: cell-based; settings: for INa I/I0: relative current at 0 mV
T1 construct: Nav1.5 (UniProt: Q14524.1); expressed in transfected cells; host or cells: Xenopus laevis oocytes (cRNA injection, Nav1.5:β1 2:1 by weight)
T1 sequence (Q14524 whole entry): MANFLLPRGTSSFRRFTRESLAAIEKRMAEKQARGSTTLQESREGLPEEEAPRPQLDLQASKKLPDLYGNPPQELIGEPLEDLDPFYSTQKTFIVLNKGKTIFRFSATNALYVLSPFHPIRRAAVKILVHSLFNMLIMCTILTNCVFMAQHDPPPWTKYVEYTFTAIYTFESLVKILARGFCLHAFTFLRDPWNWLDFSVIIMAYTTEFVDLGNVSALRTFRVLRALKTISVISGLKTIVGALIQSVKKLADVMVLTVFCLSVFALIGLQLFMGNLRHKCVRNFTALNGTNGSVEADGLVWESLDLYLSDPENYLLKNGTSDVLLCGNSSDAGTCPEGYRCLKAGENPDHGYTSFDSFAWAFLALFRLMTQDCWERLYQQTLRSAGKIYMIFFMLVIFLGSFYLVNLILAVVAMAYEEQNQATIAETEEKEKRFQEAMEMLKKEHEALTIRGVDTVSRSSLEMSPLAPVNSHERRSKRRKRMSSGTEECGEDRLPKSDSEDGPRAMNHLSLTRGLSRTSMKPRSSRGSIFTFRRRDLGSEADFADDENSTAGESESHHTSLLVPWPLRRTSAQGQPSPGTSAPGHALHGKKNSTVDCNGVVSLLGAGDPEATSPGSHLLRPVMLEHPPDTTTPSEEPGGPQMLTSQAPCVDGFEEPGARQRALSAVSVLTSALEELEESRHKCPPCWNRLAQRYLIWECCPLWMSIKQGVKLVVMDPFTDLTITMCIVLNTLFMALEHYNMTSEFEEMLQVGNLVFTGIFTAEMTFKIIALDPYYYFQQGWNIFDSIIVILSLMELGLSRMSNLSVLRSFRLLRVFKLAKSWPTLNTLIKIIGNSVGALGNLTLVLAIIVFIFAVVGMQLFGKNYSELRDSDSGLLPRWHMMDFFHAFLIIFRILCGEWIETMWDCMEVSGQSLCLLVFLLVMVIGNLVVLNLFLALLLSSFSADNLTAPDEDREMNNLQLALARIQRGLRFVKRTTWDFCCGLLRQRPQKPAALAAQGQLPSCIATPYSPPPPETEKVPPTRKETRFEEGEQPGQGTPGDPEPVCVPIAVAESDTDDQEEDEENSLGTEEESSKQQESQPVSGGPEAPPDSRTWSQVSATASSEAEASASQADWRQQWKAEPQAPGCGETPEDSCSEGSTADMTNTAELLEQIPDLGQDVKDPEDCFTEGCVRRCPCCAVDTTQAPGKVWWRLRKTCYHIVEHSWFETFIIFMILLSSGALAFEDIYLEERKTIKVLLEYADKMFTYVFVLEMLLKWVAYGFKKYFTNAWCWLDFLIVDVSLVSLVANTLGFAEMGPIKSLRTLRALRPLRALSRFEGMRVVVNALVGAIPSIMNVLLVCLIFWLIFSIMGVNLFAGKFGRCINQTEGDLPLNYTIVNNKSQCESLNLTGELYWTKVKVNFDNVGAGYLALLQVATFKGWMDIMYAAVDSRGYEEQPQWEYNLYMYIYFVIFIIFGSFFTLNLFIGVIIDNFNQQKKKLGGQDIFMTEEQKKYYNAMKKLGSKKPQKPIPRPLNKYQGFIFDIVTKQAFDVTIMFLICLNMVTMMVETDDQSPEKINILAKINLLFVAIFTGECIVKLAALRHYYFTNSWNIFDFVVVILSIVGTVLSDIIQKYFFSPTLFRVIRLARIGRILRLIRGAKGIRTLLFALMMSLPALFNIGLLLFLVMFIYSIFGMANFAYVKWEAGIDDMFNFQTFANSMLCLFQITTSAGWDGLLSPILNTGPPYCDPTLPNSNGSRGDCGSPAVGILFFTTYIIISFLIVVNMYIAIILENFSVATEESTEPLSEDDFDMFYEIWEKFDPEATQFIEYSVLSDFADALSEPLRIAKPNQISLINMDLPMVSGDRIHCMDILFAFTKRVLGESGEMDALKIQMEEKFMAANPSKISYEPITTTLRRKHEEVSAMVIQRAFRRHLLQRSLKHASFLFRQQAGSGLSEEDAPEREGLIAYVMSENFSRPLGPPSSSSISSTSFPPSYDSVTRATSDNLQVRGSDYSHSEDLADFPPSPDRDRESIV
T1 sequence (Q07699 19-218 partner): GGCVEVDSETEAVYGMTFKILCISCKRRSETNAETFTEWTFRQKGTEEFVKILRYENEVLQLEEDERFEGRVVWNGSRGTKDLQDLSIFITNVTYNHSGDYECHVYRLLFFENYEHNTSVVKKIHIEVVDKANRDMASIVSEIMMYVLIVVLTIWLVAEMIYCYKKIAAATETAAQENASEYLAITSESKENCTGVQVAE
Description: (§1) Molecular Biology cRNA encoding Kv7.1 (UniProt: P51787), KCNE1 (UniProt: P15382.1), Nav1.5 (UniProt: Q14524.1), Nav β1 (UniProt: […]), Nav β3 (UniProt: […]), Cav1.2 (GenBank: CAA84346), Cav β3 (Uniprot: P54286), Cav β2 (Uniprot: P54288), and Cav α2δ (Uniprot: P13806) were transcribed using the mMessage mMachine T7 kit (Ambion). 50 ng of cRNA was injected into defolliculated Xenopus laevis oocytes (Ecocyte, Austin, TX): For Kv7.1/KCNE1 channel expression, we injected a 3:1, weight:weight (Kv7.1:KCNE1) cRNA ratio. For Nav1.5 channel expression, we injected a 2:1, weight:weight (Nav1.5:β1) cRNA ratio. For Cav1.2 channel expression, we injected a 2:1:1, weight:weight (Cav1.2:β3:α2δ) cRNA ratio. The exact stoichiometry for channel macromolecular complexes, including α -subunits and auxiliary subunits is not clear for many ion channels. For example, there have been multiple reported stoichiometries for Kv7.1:KCNE1 determined in heterologous expression systems with some groups reporting flexible stoichiometry of 4 Kv7.1: 1–4 KCNE1 and others reporting a fixed stoichiometry of 4 Kv7.1: 2 KCNE1 ([Murray et al., 2016]; [Nakajo et al., 2010]). The ratios of cRNA of α- and auxiliary subunits that we injected in Xenopus laevis oocytes are such that all α-subunits are assumed to be in complex with auxiliary subunits. This allows a more homogenous population of ion channels with auxiliary subunits. One caveat to expressing ion channels as macromolecular complexes is that there are many other auxiliary subunits that could associate with the channel α -subunit that are present in cardiomyocytes and have the potential to alter PUFA-induced effects, but that are not being co-expressed in our experiments. In this work, we are co-expressing some of the auxiliary subunits that have been primarily reported to associate with their respective α -subunits in cardiomyocytes. Following cRNA injection, cells were incubated for 72–96 hr in standard ND96 solution (96 mM NaCl, 2 mM KCl, 1 mM MgCl2, 1.8 mM CaCl2, 5 mM HEPES; pH = 7.5) containing 1 mM pyruvate at 16°C prior to electrophysiological recordings.
(§2) Xenopus laevis oocytes were recorded in the two-electrode voltage clamp (TEVC) configuration. Recording pipettes were filled with 3 M KCl. The recording chamber was filled with ND96 (96 mM NaCl, 2 mM KCl, 1 mM MgCl2, 1.8 mM CaCl2, 5 mM HEPES; pH 7.5). For Cav1.2/β3/α2δ channel recordings, Xenopus oocytes were injected with 50 nl of 100 mM EGTA and incubated at 10°C for 30 min prior to electrophysiological recordings in order to sequester cytosolic calcium. In addition, Cav1.2/β3/α2δ channel recordings were done in Ca^2+-free solutions, using Ba^2+ as the charge carrier, to prevent calcium-dependent inactivation of Cav1.2/β3/α2δ channels. Calcium-dependent inactivation was not studied in this work, due to the presence of large calcium-activated chloride currents present in Xenopus laevis oocytes. PUFAs were obtained from Cayman Chemical (Ann Arbor, MI.) or synthesized in house (Linköping, Sweden) through methods previously described ([Bohannon et al., 2020]) and kept at −20 °C as 100 mM stock solutions in ethanol. Serial dilutions of the different PUFAs were prepared from stocks to make 0.2 μM, 0.7 μM, 2 μM, 7 μM, and 20 μM concentrations in ND96 solutions (pH = 7.5). PUFAs were perfused into the recording chamber using the Rainin Dynamax Peristaltic Pump (Model RP-1) (Rainin Instrument Co., Oakland, CA. USA).
(§3) Electrophysiological recordings were obtained using Clampex 10.3 software (Axon, pClamp, Molecular Devices). To measure Kv7.1/KCNE1 currents we apply PUFAs as the membrane potential is stepped every 30 s from −80 mV to 0 mV for 5 s before stepping to −40 mV and back to −80 mV to ensure that the PUFA effects on the current at 0 mV reached steady state. A voltage-step protocol was used to measure the current vs. voltage (I-V) relationship before PUFA application and after the PUFA effects had reached steady state for each concentration of PUFA. […]

Cav1.2/β3/α2δ = molecular target: T2, Cav1.2/β3/α2δ (Homo sapiens, UniProt Q13936); experiment: Two-electrode voltage clamp of Cav1.2/β3/α2δ expressed in Xenopus oocytes (Ba2+ as charge carrier); type: cell-based; settings: for ICa I/I0: relative current at 0 mV
T2 construct: expressed in transfected cells; host or cells: Xenopus laevis oocytes (cRNA injection, Cav1.2:β3:α2δ 2:1:1 by weight)
Description: as §1, §2, §3

SMILES | Gmax/Gmax0 (Nav1.5/β1; 0.2 μM) | ΔV0.5 (voltage dependence of inactivation) (Nav1.5/β1; 0.2 μM) [mV] | INa I/I0 (Nav1.5/β1; 0.2 μM) | Gmax/Gmax0 (Nav1.5/β1; 0.7 μM) | ΔV0.5 (voltage dependence of inactivation) (Nav1.5/β1; 0.7 μM) [mV] | INa I/I0 (Nav1.5/β1; 0.7 μM) | Gmax/Gmax0 (Nav1.5/β1; 2 μM) | ΔV0.5 (voltage dependence of inactivation) (Nav1.5/β1; 2 μM) [mV] | INa I/I0 (Nav1.5/β1; 2 μM) | Gmax/Gmax0 (Nav1.5/β1; 7 μM) | ΔV0.5 (voltage dependence of inactivation) (Nav1.5/β1; 7 μM) | INa I/I0 (Nav1.5/β1; 7 μM) | Gmax/Gmax0 (Nav1.5/β1; 20 μM) | ΔV0.5 (voltage dependence of inactivation) (Nav1.5/β1; 20 μM) [mV] | INa I/I0 (Nav1.5/β1; 20 μM) | Gmax/Gmax0 (Cav1.2/β3/α2δ; 0.2 μM) | ΔV0.5 (voltage dependence of inactivation) (Cav1.2/β3/α2δ; 0.2 μM) [mV] | ICa I/I0 (Cav1.2/β3/α2δ; 0.2 μM) | Gmax/Gmax0 (Cav1.2/β3/α2δ; 0.7 μM) | ΔV0.5 (voltage dependence of inactivation) (Cav1.2/β3/α2δ; 0.7 μM) [mV] | other results
CCCCC/C=C\C/C=C\CC/C=C\CCCC(=O)NCCS(=O)(=O)O [Pin-taurine] | 1.2 ± 0.2 | 1.6 ± 0.9 | 1.2 ± 0.1 | 1.2 ± 0.2 | 0.9 ± 1.1 | 1.2 ± 0.1 | 1.0 ± 0.1 | -3.0 ± 1.9 | 1.0 ± 0.1 | 0.4 ± 0.09 | –16 ± 2.7 mV | 0.5 ± 0.1 (p=0.01) | 0.1 ± 0.02 | -28.1 ± 2.4 | 0.2 ± 0.03 | 0.9 ± 0.1 | 2.7 ± 1.9 | 0.7 ± 0.1 | 1.0 ± 0.1 | 3.9 ± 1.9 | Gmax/Gmax0 (Nav1.5/β1; 7 μM, listed as pin-taurine): 0.4 ± 0.1; ΔV0.5 (voltage dependence of inactivation) (Nav1.5/β1; 7 μM, listed as pin-taurine): -16.0 ± 2.7 mV; INa I/I0 (Nav1.5/β1; 7 μM, listed as pin-taurine): 0.5 ± 0.1; ICa I/I0 (Cav1.2/β3/α2δ; 0.7 μM): 0.8 ± 0.1; Gmax/Gmax0 (Cav1.2/β3/α2δ; 2 μM): 1.0 ± 0.1; ΔV0.5 (voltage dependence of inactivation) (Cav1.2/β3/α2δ; 2 μM): 3.7 ± 1.8 mV; ICa I/I0 (Cav1.2/β3/α2δ; 2 μM): 0.8 ± 0.1; Gmax/Gmax0 (Cav1.2/β3/α2δ; 7 μM): 0.8 ± 0.1; ΔV0.5 (voltage dependence of inactivation) (Cav1.2/β3/α2δ; 7 μM): 4.1 ± 2.2 mV; ICa I/I0 (Cav1.2/β3/α2δ; 7 μM): 0.7 ± 0.1 (p=0.02); ICa I/I0 (Cav1.2/β3/α2δ; 7 μM, listed as pin-taurine): 0.7 ± 0.1; Gmax/Gmax0 (Cav1.2/β3/α2δ; 20 μM): 0.6 ± 0.1; ΔV0.5 (voltage dependence of inactivation) (Cav1.2/β3/α2δ; 20 μM): 6.0 ± 4.1 mV; ICa I/I0 (Cav1.2/β3/α2δ; 20 μM): 0.5 ± 0.1
CCCCC/C=C\C/C=C\CC/C=C\CCCC(=O)NCC(=O)O [Pin-glycine] | 1.0 ± 0.03 | 0.4 ± 0.3 | 1.1 ± 0.05 | 1.0 ± 0.03 | 0.4 ± 0.6 | 1.1 ± 0.1 | 0.9 ± 0.04 | -0.3 ± 0.7 | 1.0 ± 0.1 | 0.7 ± 0.08 | –4.7 ± 1.9 mV | 0.7 ± 0.1 (p=0.09) | 0.3 ± 0.1 | -17.8 ± 4.2 | 0.3 ± 0.1 | 0.9 ± 0.1 | -3.2 ± 3.0 | 0.7 ± 0.1 | 0.9 ± 0.1 | -3.3 ± 3.4 | Gmax/Gmax0 (Nav1.5/β1; 7 μM, listed as pin-glycine): 0.7 ± 0.1; ΔV0.5 (voltage dependence of inactivation) (Nav1.5/β1; 7 μM, listed as pin-glycine): -4.8 ± 1.9 mV; INa I/I0 (Nav1.5/β1; 7 μM, listed as pin-glycine): 0.7 ± 0.1; ICa I/I0 (Cav1.2/β3/α2δ; 0.7 μM): 0.8 ± 0.1; Gmax/Gmax0 (Cav1.2/β3/α2δ; 2 μM): 0.9 ± 0.1; ΔV0.5 (voltage dependence of inactivation) (Cav1.2/β3/α2δ; 2 μM): -4.3 ± 4.1 mV; ICa I/I0 (Cav1.2/β3/α2δ; 2 μM): 0.8 ± 0.1; Gmax/Gmax0 (Cav1.2/β3/α2δ; 7 μM): 0.8 ± 0.1; ΔV0.5 (voltage dependence of inactivation) (Cav1.2/β3/α2δ; 7 μM): −3.1 ± 4.2 mV; Gmax/Gmax0 (Cav1.2/β3/α2δ; 7 μM, listed as pin-glycine): 0.8 ± 0.2; ΔV0.5 (voltage dependence of inactivation) (Cav1.2/β3/α2δ; 7 μM, listed as pin-glycine): -3.1 ± 4.2 mV; ICa I/I0 (Cav1.2/β3/α2δ; 7 μM): 0.8 ± 0.1 (p=0.26); ICa I/I0 (Cav1.2/β3/α2δ; 7 μM, listed as pin-glycine): 0.8 ± 0.1; Gmax/Gmax0 (Cav1.2/β3/α2δ; 20 μM): 0.7 ± 0.2; ΔV0.5 (voltage dependence of inactivation) (Cav1.2/β3/α2δ; 20 μM): -3.4 ± 5.6 mV; ICa I/I0 (Cav1.2/β3/α2δ; 20 μM): 0.6 ± 0.2
